Test results from article PMC6642016 (Nature chemical biology, 2019).

Columns and labels:
Format in all cases: biochemical
PtmJ = molecular target: T1, PtmJ (Streptomyces pactum, UniProt A8R0J5); assay: mass spectrometry of GlcNAc-3ABA-SNAC; conditions: donor UDP-GlcNAc
T1 sequence (A8R0J5 1-318): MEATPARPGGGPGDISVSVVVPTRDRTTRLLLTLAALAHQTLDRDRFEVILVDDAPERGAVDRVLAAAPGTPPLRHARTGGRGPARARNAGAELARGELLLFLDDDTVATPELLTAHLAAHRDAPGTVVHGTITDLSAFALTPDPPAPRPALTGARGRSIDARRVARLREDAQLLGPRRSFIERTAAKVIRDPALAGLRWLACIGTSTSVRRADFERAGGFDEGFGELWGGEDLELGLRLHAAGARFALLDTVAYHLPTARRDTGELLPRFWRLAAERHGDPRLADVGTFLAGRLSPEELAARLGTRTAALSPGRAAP

PtmS = molecular target: T2, PtmS (Streptomyces pactum, UniProt B7TWM6); assay: HPLC and LC-MS of 3ABA-AMP; conditions: MgCl2 5 mM, Tris-HCl pH 8.0, 30 °C
T2 sequence (B7TWM6 1-505): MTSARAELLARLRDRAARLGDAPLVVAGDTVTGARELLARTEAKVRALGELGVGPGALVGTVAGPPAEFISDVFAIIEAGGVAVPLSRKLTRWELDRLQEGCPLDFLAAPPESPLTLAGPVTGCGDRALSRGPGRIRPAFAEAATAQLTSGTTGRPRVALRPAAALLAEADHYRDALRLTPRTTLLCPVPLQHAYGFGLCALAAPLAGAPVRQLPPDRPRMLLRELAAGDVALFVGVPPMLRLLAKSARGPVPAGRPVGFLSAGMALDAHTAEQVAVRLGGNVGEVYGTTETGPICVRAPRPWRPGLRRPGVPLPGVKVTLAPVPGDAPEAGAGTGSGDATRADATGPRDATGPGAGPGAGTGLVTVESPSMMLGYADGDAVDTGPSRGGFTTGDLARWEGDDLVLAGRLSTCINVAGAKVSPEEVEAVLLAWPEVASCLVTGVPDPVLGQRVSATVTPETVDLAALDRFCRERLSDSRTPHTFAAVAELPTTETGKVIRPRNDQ

PtmI = molecular target: T3, PtmI (Streptomyces pactum, UniProt A8R0J4); assay: LC-MS of intact protein; conditions: covalent; holo-PtmI 200 μM, malonyl-CoA 8 mM, Tris-HCl pH 8.0, 30 °C
T3 sequence (A8R0J4 1-94): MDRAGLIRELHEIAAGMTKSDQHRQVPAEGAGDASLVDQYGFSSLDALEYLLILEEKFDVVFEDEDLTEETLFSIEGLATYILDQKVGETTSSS

CC(=O)NCCSC(=O)c1cccc(N)c1 [3ABA-SNAC]
mass spectrometry of GlcNAc-3ABA-SNAC (PtmJ): PtmJ reaction mixture showing that 3ABA-SNAC can be glycosylated to give GlcNAc-3ABA-SNAC

Nc1ncnc2c1ncn2[C@@H]1O[C@H](COP(=O)(O)OP(=O)(O)OP(=O)(O)O)[C@@H](O)[C@H]1O [ATP]
HPLC and LC-MS of 3ABA-AMP; coupled pyrophosphate assay (PtmS; 3ABA 2 mM): incubated with 3ABA in the presence of ATP and MgCl2 to give 3-aminobenzoyl-AMP (3ABA-AMP)

Nc1cccc(C(=O)O)c1 [compound 3, 3-aminobenzoic acid]
HPLC and LC-MS of 3ABA-AMP; coupled pyrophosphate assay (PtmS; ATP 5 mM): the purified protein was incubated with 3ABA in the presence of ATP and MgCl2

CC(C)(COP(=O)(O)OP(=O)(O)OC[C@H]1O[C@@H](n2cnc3c(N)ncnc32)[C@H](O)[C@@H]1OP(=O)(O)O)[C@@H](O)C(=O)NCCC(=O)NCCSC(=O)CC(=O)O [malonyl-CoA]
LC-MS of intact protein (malonyl-PtmI, self-acylation) (PtmI): Incubation of the holo-PtmI with malonyl-CoA (Figure 3a) also led to the formation of malonyl-PtmI
